Target: T1, H3R (Rattus norvegicus, UniProt Q9QYN8)
T1 construct: from tissue; host or cells: brain of living Sprague-Dawley rats
Assay: PET imaging of rat brains
Assay type: in vivo
Settings: for cerebellar SUV at 15 min after radioligand injection: mean ± S.D.
Protocol: Six-week-old male Sprague-Dawley rats were purchased from Japan SLC (Shizuoka, Japan). PET scans were performed using a microPET Focus 220 small-animal scanner (Siemens Medical Solutions USA, Knoxville, TN). The rats were anesthetized with 1.5–2 % isoflurane during the imaging session, while their heart rate and blood oxygen saturation were monitored by pulse oximeter (CANL-425SVA; Med Associates, St. Albans, VT). Body temperature was kept at 37 °C with a heating pad (BWT-100; Bio Research Center, Aichi, Japan). Following the transmission scans for attenuation correction using a ^68Ge-^68Ga point source, emission scans were performed for 90 min in 3D list-mode with an energy window of 350–750 keV, immediately after the intravenous injection of each radioligand. Mean ± S.D. of the injected radioactivity of [^11C]TASP0410457, [^11C]TASP0434988, and [^11C]TASP0390136 was 119 ± 26 MBq, 132 ± 34 MBq, and 124 ± 17 MBq, respectively (n = 3–5). Mean ± S.D. of the mass doses of [^11C]TASP0410457, [^11C]TASP0434988, and [^11C]TASP0390136 was 2.4 ± 1.2 μg/kg, 1.9 ± 0.4 μg/kg, and 4.2 ± 1.6 μg/kg, respectively (n = 3–5).
To assess the specificity of radioligand binding, thioperamide was injected intravenously at a dose of 10 mg/kg at 30 s before the injection of each radioligand.
All list-mode data were sorted into 3D sinograms, which were then Fourier rebinned into 2D sinograms (frames: 1 min × 4, 2 min × 8 and 5 min × 14). Images were reconstructed using 2D-filtered back-projection with a 0.5-mm Hanning filter.
PET image and magnetic resonance imaging (MRI) template were co-registered using PMOD software (PMOD version 3.206; Zurich, Switzerland) according to the following procedure as in our previous works: Outline of the whole brain and positions of eyes in PET images at an early phase of the scan were initially matched to those in MRI images, and then further translations and rotations of PET images were manually performed for fine alignments. Finally, parameters for the co-registration were applied to the entire dynamic PET data. Regions of interest (ROIs) were placed on the striatum, hippocampus, and cerebellum using PMOD software with reference to the MRI template as described elsewhere. The tissue time-activity curves (TACs) for these ROIs were generated by calculating the SUV for each time frame as follows: SUV=radioactivityBq/g×bodyweightg/injectedradiotracerdoseBq
The binding potentials relative to the non-displaceable uptake (BPND) in the striatum and hippocampus were estimated using the simplified reference tissue model (SRTM) with PMOD software using the cerebellum as a reference region, as the rat cerebellum is devoid of H3R [26].

[1] = SRTM, cerebellum as reference region

T1 sequence (Q9QYN8 whole entry): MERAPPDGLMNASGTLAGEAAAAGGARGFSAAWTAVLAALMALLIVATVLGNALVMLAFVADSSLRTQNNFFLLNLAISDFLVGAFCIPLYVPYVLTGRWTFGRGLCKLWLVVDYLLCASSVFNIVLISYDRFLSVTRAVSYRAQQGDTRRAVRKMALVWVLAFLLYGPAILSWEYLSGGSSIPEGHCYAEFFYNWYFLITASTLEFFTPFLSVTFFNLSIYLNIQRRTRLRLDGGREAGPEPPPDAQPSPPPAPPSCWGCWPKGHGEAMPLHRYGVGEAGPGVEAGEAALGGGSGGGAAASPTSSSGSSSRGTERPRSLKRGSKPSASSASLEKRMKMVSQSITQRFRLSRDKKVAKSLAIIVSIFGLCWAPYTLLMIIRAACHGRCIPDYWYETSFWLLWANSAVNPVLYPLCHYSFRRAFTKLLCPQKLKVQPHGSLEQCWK

[11CH3]Oc1ccc(N2C(=O)CCc3cc(OC4CCN(C5CCC5)CC4)ccc32)cn1 [[^11C]TASP0410457]
BPND, Hippocampus [1]: 0.53 ± 0.06 | BPND, Striatum [1]: 1.26 ± 0.12 | cerebellar SUV at 15 min after radioligand injection (baseline): 0.64 ± 0.13 | peak SUV, cerebellum (bolus intravenous, baseline): ~1.2 | peak SUV, hippocampus (bolus intravenous, baseline): around 1.5 | peak SUV, striatum (bolus intravenous, baseline): ~2.0 | time for specific binding to reach a pseudo-equilibrium state (target-to-reference ratios, after intravenous injection): ≤ 15 min | cerebellar SUV at 15 min after radioligand injection (thioperamide predosing 10 mg/kg): 0.47 ± 0.09

From PMC4747952, “Development of TASP0410457 (TASP457), a novel dihydroquinolinone derivative as a PET radioligand for central histamine H3 receptors” (EJNMMI Research, 2016)
